Assay [1] concerns Wistar rats. Put plainly: Evaluation of diuretic action. Format: in vivo, rat (male Wistar). To be noted: sc, rat, s.c., urine output for 5 h after 20 ml/kg saline oral; for ED200: read-out: ED200, diuretic action (dose giving urine output of 200, non-dosed group = 100); for ED500: read-out: ED500, diuretic action (dose giving urine output of 500, non-dosed group = 100). The protocol:
Evaluation of Diuretic Action
7-8 week old male Wistar rats were used in this test after prohibiting from drinking water for 1 hour before testing. After discharging any urine accumulated in the bladder by gently stimulating the lower abdomens of the animals, the drug was administered subcutaneously. After 30 minutes, the animals were then forcibly given 20 ml/kg of physiological saline orally. The animals were then placed in metabolic cages immediately after administration of the drug (2 animals/cage) and urine output for 5 hours after loading with physiological saline was measured. Drug efficacy was expressed in the form of those doses resulting in urine outputs of 200 and 500, respectively, when the urine output of a non-dosed group was taken to be 100. Those doses were expressed as the ED200 and ED500 values, respectively.

The target in assay [2] is T1, κ receptor (Mus musculus, UniProt P33534).
T1 construct: The isolated vas deference was filled with Krebes-Henseleit solution; from tissue; host or cells: isolated vas deferens of male ddy mouse
Description: Ke with norBNI in isolated mouse vas deference preparation. Format: cell-based, mouse (male ddy). To be noted: for Ke norBNI: norBNI (κ). The protocol:
(§1) A male ddy mouse was used in this test. The isolated vas deference was filled with Krebes-Henseleit solution (NaCl 118 mM; KCl 4.7 mM; CaCl2 2.5 mM; KH2 PO4 1.1 mM; NaHCO3 25 mM; and glucose 10 mM) warmed to 37° C. and suspended in a Magnus tube ventilated with 5% carbon dioxide and 95% oxygen. Electrical stimulus was performed at 0.1 Hz for 5.0 ms by means of ring-shaped platinum electrodes located above and below. Tissue contractions were recorded on a polygraph using an isometric transducer.
(§2) Then after adequately washing with nutrient solution and the contraction reaction stabilized, naloxone, a μ […], NTI, a δ […], or norBNI, a κ […], were added and the test compound was again cumulatively added after roughly 20 minutes. The Ke value was calculated using the following calculation formula from the difference in the efficacies of both agonists.
(§3) Ke=[Conc. of added agonist]/(IC50 ratio-1)
(§4) IC50 ratio IC50 in the presence of agonist/IC50 in the absence of agonist

The target of assay [3] is T2, δ receptor (Mus musculus, UniProt P32300).
T2 construct: The isolated vas deference was filled with Krebes-Henseleit solution; from tissue; host or cells: isolated vas deferens of male ddy mouse
Description: Ke with NTI in isolated mouse vas deference preparation. Format: cell-based, mouse (male ddy). As to conditions: NTI (δ). The protocol:
as §1, §2, §3, §4

Assay [4] concerns the target T3, μ receptor (Mus musculus, UniProt P42866).
T3 construct: The isolated vas deference was filled with Krebes-Henseleit solution; from tissue; host or cells: isolated vas deferens of male ddy mouse
Put plainly: Ke with naloxone in isolated mouse vas deference preparation. Format: cell-based, mouse (male ddy). Here is the method:
as §1, §2, §3, §4

Structures can show the parent of a compound that is named as a salt.

T2 sequence (P32300 whole entry): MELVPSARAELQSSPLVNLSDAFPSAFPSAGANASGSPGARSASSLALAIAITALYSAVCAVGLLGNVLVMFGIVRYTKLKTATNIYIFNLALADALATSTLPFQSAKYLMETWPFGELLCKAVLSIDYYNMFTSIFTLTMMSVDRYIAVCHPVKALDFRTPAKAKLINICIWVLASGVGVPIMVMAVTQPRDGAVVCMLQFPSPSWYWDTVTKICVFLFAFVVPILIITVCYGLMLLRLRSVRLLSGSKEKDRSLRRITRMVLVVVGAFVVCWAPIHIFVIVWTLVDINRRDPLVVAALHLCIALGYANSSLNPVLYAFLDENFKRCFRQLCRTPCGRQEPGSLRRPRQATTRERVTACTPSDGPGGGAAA
T3 sequence (P42866 whole entry): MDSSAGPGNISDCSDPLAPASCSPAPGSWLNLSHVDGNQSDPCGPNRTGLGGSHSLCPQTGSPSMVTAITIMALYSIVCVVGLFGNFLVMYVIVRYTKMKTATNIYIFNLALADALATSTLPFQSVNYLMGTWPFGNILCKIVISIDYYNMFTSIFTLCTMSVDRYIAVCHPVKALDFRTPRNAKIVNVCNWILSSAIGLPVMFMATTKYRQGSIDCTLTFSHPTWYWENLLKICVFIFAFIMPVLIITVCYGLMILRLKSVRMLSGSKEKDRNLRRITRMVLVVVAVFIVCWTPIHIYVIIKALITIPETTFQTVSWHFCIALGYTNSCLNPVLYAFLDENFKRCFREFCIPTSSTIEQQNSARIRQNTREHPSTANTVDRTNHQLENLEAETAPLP
T1 sequence (P33534 whole entry): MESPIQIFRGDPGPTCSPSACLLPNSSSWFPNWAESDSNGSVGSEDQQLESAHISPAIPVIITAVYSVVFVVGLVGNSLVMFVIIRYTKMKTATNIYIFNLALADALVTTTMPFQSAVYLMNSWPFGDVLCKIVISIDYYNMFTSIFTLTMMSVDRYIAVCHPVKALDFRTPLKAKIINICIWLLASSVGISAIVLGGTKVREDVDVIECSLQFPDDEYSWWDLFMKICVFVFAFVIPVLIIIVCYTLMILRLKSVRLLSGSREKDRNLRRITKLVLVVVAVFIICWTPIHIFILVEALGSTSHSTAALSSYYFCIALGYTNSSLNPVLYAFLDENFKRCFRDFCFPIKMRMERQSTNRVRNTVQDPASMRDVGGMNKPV

With `CN(C(=O)Cc1ccc(Br)cc1)[C@H]1CC[C@@]2(O)[C@H]3Cc4ccc(O)c5c4[C@@]2(CCN3CC2CC2)[C@H]1O5` [Compound 28, 17-cyclopropylmethyl-3,14β-dihydroxy-4,5α-epoxy-6α-(N-methyl-4-bromophenylacetamido)morphinan.hydrobromide], in assay [1], the ED200 was determined as 20 µg/kg.

On to `CCCCCCC(=O)N(C)[C@H]1CC[C@@]2(O)[C@H]3Cc4ccc(O)c5c4[C@@]2(CCN3CC2CC2)[C@H]1O5` [Compound 46, 17-cyclopropylmethyl-3,14β-dihydroxy-4,5α-epoxy-6α-(N-methylheptanamido)morphinan.hydrochloride], for which, in assay [2], the “selective agonist for κ receptors (in words)” value (from here on “selective agonist”) is listed as “selective agonists for κ receptors” and the “Ke norBNI” value was determined as 0.440 nM.

In the case of `CN(C(=O)/C=C/C1CCCCC1)[C@H]1CC[C@@]2(O)[C@H]3Cc4ccc(O)c5c4[C@@]2(CCN3CC2CC2)[C@H]1O5` [Compound 50, 17-cyclopropylmethyl-4,5α-epoxy-3,14β-dihydroxy-6α-(N-methyl-trans-3-cyclohexylacrylamido)morphinan.hydrochloride], in assay [1], the ED200 came to 2.1 µg/kg.

With `O=C(Cc1ccc(Cl)c(Cl)c1)N[C@H]1CC[C@@]2(O)[C@H]3Cc4ccc(O)c5c4[C@@]2(CCN3CC2CC2)[C@H]1O5` [Compound 52, 17-cyclopropylmethyl-4,5α-epoxy-3,14β-dihydroxy-6α-(3,4-dichlorophenylacetoamido) morphinan.hydrochloride], in assay [2], the “selective agonist” value is recorded as “selective agonists for κ receptors”.

Consider `CN(C(=O)Cc1ccc(Cl)c(Cl)c1)[C@@H]1CC[C@@]2(O)[C@H]3Cc4ccc(O)c5c4[C@@]2(CCN3CC2CC2)[C@H]1O5` [Compound 53, 17-cyclopropylmethyl-4,5α-epoxy-3,14β-dihydroxy-6β-(N-methyl-3,4-dichlorophenylacetoamido)morphinan.hydrochloride], for which the “Ke NTI” value in assay [3] was found to be 1676 nM. Further, in assay [2], the “Ke norBNI” value is 0.21 nM.

In the case of `CN(C(=O)OCc1ccccc1)[C@@H]1CC[C@@]2(O)[C@H]3Cc4ccc(O)c5c4[C@@]2(CCN3CC2CC2)[C@H]1O5` [Compound 56, 17-cyclopropylmethyl-3,14β-dihydroxy-4,5α-epoxy-60-(N-methylbenzyloxycarbamido)morphinan.hydrochloride], the ED200 in assay [1] came to 2.8 µg/kg.

Take `CN(C(=O)CCc1ccccc1)[C@@H]1CC[C@@]2(O)[C@H]3Cc4ccc(O)c5c4[C@@]2(CCN3CC2CC2)[C@H]1O5` [Compound 57, 17-cyclopropylmethyl-3,14β-dihydroxy-4,5α-epoxy-60-(N-methyl-3-phenylpropionamido) morphinan.hydrochloride]: in assay [3], the “Ke NTI” value is reported as 747 nM. Moreover, in assay [2], the “selective agonist” value was “selective agonists for κ receptors” and the “Ke norBNI” value is on record as 0.0124 nM.

In the case of `CCCCOC(=O)N(C)[C@@H]1CC[C@@]2(O)[C@H]3Cc4ccc(O)c5c4[C@@]2(CCN3CC2CC2)[C@H]1O5` [Compound 59, 17-cyclopropylmethyl-3,14β-dihydroxy-4,5α-epoxy-6β-(N-methylbutyroxycarbamido)morphinan.tartrate], the “Ke NTI” value in assay [3] is 47.3 nM. Further, in assay [2], the “selective agonist” value is recorded as “selective agonists for κ receptors” and the “Ke norBNI” value came to 0.151 nM. In assay [4], the “Ke Naloxone” value amounted to 21.3 nM.

`CCCCCC(=O)N(C)[C@@H]1CC[C@@]2(O)[C@H]3Cc4ccc(O)c5c4[C@@]2(CCN3CC2CC2)[C@H]1O5` [Compound 62, 17-cyclopropylmethyl-3,14β-dihydroxy-4,5α-epoxy-6β-(N-methylhexanamido)morphinan.tartrate]: the “Ke NTI” value in assay [3] amounted to 90.2 nM. In assay [2], the “selective agonist” value is “selective agonists for κ receptors” and the “Ke norBNI” value was found to be 0.203 nM.

As to `CN(C(=O)/C=C/c1ccc(C(F)(F)F)cc1)[C@@H]1CC[C@@]2(O)[C@H]3Cc4ccc(O)c5c4[C@@]2(CCN3CC2CC2)[C@H]1O5` [Compound 73, 17-cyclopropylmethyl-3,14,β-dihydroxy-4,5α-epoxy-6β-(N-methyl-4-trifluoromethylcinnamamido) morphinan.tartrate], in assay [3], the “Ke NTI” value stood at 78 nM. In addition, in assay [2], the “selective agonist” value is on record as “selective agonists for κ receptors” and the “Ke norBNI” value was found to be 0.272 nM. The “Ke Naloxone” value in assay [4] is 524 nM.

As to `CN(C(=O)/C=C/c1ccc(Cl)c(Cl)c1)[C@H]1CC[C@@]2(O)[C@H]3Cc4ccc(O)c5c4[C@@]2(CCN3CC2CC2)[C@H]1O5` [Compound 86, 17-cyclopropylmethyl-3,14β-dihydroxy-4,5α-epoxy-6α-(N-methyl-3,4-dichlorocinnamamido) morphinan.hydrochloride], the ED200 in assay [1] is 5.7 µg/kg.

As for `CN(C(=O)/C=C/c1ccsc1)[C@H]1CC[C@@]2(O)[C@H]3Cc4ccc(O)c5c4[C@@]2(CCN3CC2CC2)[C@H]1O5` [Compound 91, 17-cyclopropylmethyl-3,14β-dihydroxy-4,5α-epoxy-6α-[N-methyl-trans-3-(3-thienyl)acrylamido]morphinan.tartrate], in assay [3], the “Ke NTI” value was 450 nM. In assay [2], the “selective agonist” value is given as “selective agonists for κ receptors” and the “Ke norBNI” value is 0.699 nM. Moreover, in assay [1], the ED500 came to 0.96 mg/kg and the ED200 turned out to be 9.4 µg/kg.

Take `CCC/C=C/C(=O)N(C)[C@H]1CC[C@@]2(O)[C@H]3Cc4ccc(O)c5c4[C@@]2(CCN3CC2CC2)[C@H]1O5` [Compound 95, 17-cyclopropylmethyl-3,14β-dihydroxy-4,5α-epoxy-6α-(N-methyl-trans-2-hexenamido)morphinan.tartrate]: in assay [1], the ED200 amounted to 2.8 µg/kg.

For the compound `CN(C(=O)CC(=O)c1ccccc1)[C@@H]1CC[C@@]2(O)[C@H]3Cc4ccc(O)c5c4[C@@]2(CCN3CC2CC2)[C@H]1O5` [Compound 103, 17-cyclopropylmethyl-3,14β-dihydroxy-4,5α-epoxy-6β-(N-methylbenzoylacetamido)morphinan.tartrate], in assay [2], the “selective agonist” value is reported as “selective agonists for κ receptors” and the “Ke norBNI” value was 0.657 nM.

Consider `CN(C(=O)/C=C/c1cccc([N+](=O)[O-])c1)[C@@H]1CC[C@@]2(O)[C@H]3Cc4ccc(O)c5c4[C@@]2(CCN3CC2CC2)[C@H]1O5` [Compound 104, 17-cyclopropylmethyl-3,14β-dihydroxy-4,5α-epoxy-6β-(N-methyl-3-nitrocinnamamido)morphinan.tartrate], for which the “Ke NTI” value in assay [3] was 89 nM. Moreover, the “Ke norBNI” value in assay [2] was 1.40 nM. Besides, the “Ke Naloxone” value in assay [4] is 185 nM.

For `CN(C(=O)Cc1ccc(F)c(F)c1)[C@H]1CC[C@@]2(O)[C@H]3Cc4ccc(O)c5c4[C@@]2(CCN3CC2CC2)[C@H]1O5` [Compound 105, 17-cyclopropylmethyl-3,14β-dihydroxy-4,5α-epoxy-6α-(N-methyl-3,4-difluorophenylacetamido)morphinan.hydrochloride], in assay [1], the ED500 was determined as 3.3 mg/kg and the ED200 came to 19 µg/kg.

On to `CN(C(=O)Cc1csc2ccccc12)[C@H]1CC[C@@]2(O)[C@H]3Cc4ccc(O)c5c4[C@@]2(CCN3CC2CC2)[C@H]1O5` [Compound 107, 17-cyclopropylmethyl-3,14β-dihydroxy-4,5α-epoxy-6α-(N-methyl-3-benzo[b]thienylacetamido)morphinan.hydrochloride], for which, in assay [1], the ED500 worked out at 0.2 mg/kg and the ED200 amounted to 6.1 µg/kg.

Consider `CN(C(=O)Cc1cccc(C(F)(F)F)c1)[C@H]1CC[C@@]2(O)[C@H]3Cc4ccc(O)c5c4[C@@]2(CCN3CC2CC2)[C@H]1O5` [Compound 108, 17-cyclopropylmethyl-3,14β-dihydroxy-4,5α-epoxy-6α-(N-methyl-3-trifluoromethylphenylacetamido) morphinan.hydrochloride], for which, in assay [1], the ED200 was 21 µg/kg.

`C=CCN1CC[C@]23c4c5ccc(O)c4O[C@H]2[C@@H](N(C)C(=O)Cc2ccc(Cl)c(Cl)c2)CC[C@@]3(O)[C@H]1C5` [Compound 122, 17-allyl-3,14β-dihydroxy-4,5α-epoxy-6α-(N-methyl-3,4-dichlorophenylacetamido)morphinan.hydrochloride]: in assay [3], the “Ke NTI” value was determined as 42.7 nM. Further, in assay [2], the “selective agonist” value is listed as “selective agonists for κ receptors” and the “Ke norBNI” value is 0.358 nM. In assay [4], the “Ke Naloxone” value amounted to 59.5 nM.

(Values after patent publication US6277859A, “Morphinan derivative and its pharmaceutical applications” (priority 1992, dated 2001).)
